Test results published in patent US20180230127A1 (PFIZER INC., priority 2015, published 2018).
Where a name gives a salt, the structure may show the parent alone.

biological target: T1, human IRAK4 kinase domain (aa 154-460) (Homo sapiens, UniProt Q9NWZ3); assay: IRAK4 Enzymatic DELFIA Assay; assay type: biochemical; details: 0.6 mM ATP (KM); 114 pM IRAK4 kinase domain; 200 nM substrate; 5% DMSO
T1 construct: human IRAK4 kinase domain (aa 154-460; GenBank ID AF445802)
T1 sequence (Q9NWZ3 154-460): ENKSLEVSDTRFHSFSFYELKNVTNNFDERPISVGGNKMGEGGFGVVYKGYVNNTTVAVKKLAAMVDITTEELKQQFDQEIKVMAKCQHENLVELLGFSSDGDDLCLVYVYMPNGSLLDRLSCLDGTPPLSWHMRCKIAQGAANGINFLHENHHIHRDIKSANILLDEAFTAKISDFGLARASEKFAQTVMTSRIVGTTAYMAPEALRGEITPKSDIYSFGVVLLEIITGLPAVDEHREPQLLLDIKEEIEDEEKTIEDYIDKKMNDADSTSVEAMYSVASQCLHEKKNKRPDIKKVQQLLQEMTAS
Protocol: IRAK4 Enzymatic DELFIA Assay.
This is an in vitro assay to measure IRAK4 enzymatic activity utilizing the DELFIA (Dissociation-Enhanced Lanthanide Fluorescent Immunoassay, Perkin-Elmer) platform, with the human IRAK4 kinase domain (aa 154-460) construct to characterize IRAK4 inhibitor and control compounds at 0.6 mM ATP (KM). The final amount of enzyme in the assay is 114 pM IRAK4 kinase domain, final concentration of substrate is 200 nM, and final concentration of DMSO is 5%.
The test compound was solubilized in DMSO to a stock concentration of 30 mM. The dose response plates were prepared with a 2 mM primary compound concentration, and then diluted in DMSO in a four-fold series for a total of 10 data points. Compounds were prepared as a 20-fold multiple of the final in-assay concentration
To begin the assay, 45 μL of reaction mixture containing 20 mM HEPES pH=7.5, 5 mM MgCl2, 0.0025% Brij-35, […], 228 pM phosphorylated recombinant human IRAK4 kinase domain (aa 154-460; GenBank ID AF445802) were aliquoted into Ultra-Clear Polypropylene, 96-well, U-Bottom Plates (Corning Life Sciences). 5 μL of test compound from the dose-response plate was added to the reaction mixture and incubated for 15 minutes at room temperature. Then 50 μL of 20 mM HEPES pH=7.5, 5 mM MgCl2, 0.0025% Brij-35, 600 μM ATP, and 400 nM ERM-biotinylated peptide (AGAGRDKYKTLRQIR) were added to start the reaction. The reaction was incubated for 90 minutes at room temperature and stopped by the addition of 25 μL 0.5M EDTA.
100 μL of the reaction mixture was transferred to a streptavidin coated detection plate (EvenCoat Streptavidin Coated Plates, 96-Well, R&D Systems) and incubated for 30 minutes at room temperature. The plates were washed 4 times with 100 μL per well of PBS containing 0.05% Tween-20. Plates were then incubated with 50 μL per well of antibody cocktail of Anti-pERM antibody (Cell Signaling Technology) diluted 1:5000, plus Anti-Rabbit IgG EuN1 at 0.242 μg/ml (Perkin-Elmer Life Sciences) in a solution of 10 mM MOPS pH=7.5, 150 mM NaCl, 0.05% Tween-20, 0.02% NaN3, 1% BSA, 0.1% Gelatin for 45 minutes. The plates were washed 4× with 100 μL per well of PBS containing 0.05% Tween-20. Then 100 μL per well of DELFIA Enhancement Solution were added to the plate and then read on an EnVision Model 2103 using a 340 nm excitation wavelength and a 665 nm emission detection.

IC50	Compound
1200 nM	CC(C)Oc1cc2c(OC3CCCN(C)C3)ccnc2cc1C(N)=O (stereo not drawn) [Example 71, 4-[(1-methylpiperidin-3-yl)oxyl]-6-(propan-2-yloxy)quinoline-7-carboxamide]
97 nM	CC(C)Oc1cc2c(O[C@@H]3CCCN(C(=O)[C@@H](N)CC#N)C3)ccnc2cc1C(N)=O [Example 46, 4-({(3R)-1-[(2S)-2-amino-3-cyanopropanoyl]piperidin-3-yl}oxy)-6-(propan-2-yloxy)quinoline-7-carboxamide trifluoroacetate]
4 nM	CC(C)Oc1cc2c(O[C@@H]3CCCN(C(=O)CC#N)C3)ccnc2cc1C(N)=O [Example 28, 4-{[(3R)-1-(cyanoacetyl)piperidin-3-yl]oxy}-6-(propan-2-yloxy)quinoline-7-carboxamide]
13 nM	CC(C)Oc1cc2c(O[C@@H]3CCCN(C(=O)CO)C3)ccnc2cc1C(N)=O [Example 4, 4-{[(3R)-1-(hydroxyacetyl)piperidin-3-yl]oxy}-6-(propan-2-yloxy)quinoline-7-carboxamide formate]
110 nM	CC(C)Oc1cc2c(O[C@@H]3C[C@@H](C)N(C(=O)CC#N)C3)ccnc2cc1C(N)=O [Example 16, 4-{[(3R,5R)-1-(cyanoacetyl)-5-methylpyrrolidin-3-yl]oxy}-6-(propan-2-yloxy)quinoline-7-carboxamide formate]
156 nM	CC(C)Oc1cc2c(O[C@H]3CCN(C(=O)CC#N)C3)ccnc2cc1C(N)=O [Example 39, 4-{[(3S)-1-(cyanoacetyl)pyrrolidin-3-yl]oxy}-6-(propan-2-yloxy)quinoline-7-carboxamide]
299 nM	CC(C)Oc1cc2c(O[C@@H]3CCCN(C(=O)[C@H](N)CC#N)C3)ccnc2cc1C(N)=O [Example 48, 4-({(3R)-1-[(2R)-2-amino-3-cyanopropanoyl]piperidin-3-yl}oxy)-6-(propan-2-yloxy)quinoline-7-carboxamide trifluoroacetate]
65 nM	CC(C)Oc1cc2c(O[C@H]3CN(C(=O)CC#N)CC[C@@H]3C)ccnc2cc1C(N)=O [Example 52, 4-{[(3R,4S)-1-(cyanoacetyl)-4-methylpiperidin-3-yl]oxy}-6-(propan-2-yloxy)quinoline-7-carboxamide]
506 nM	CCC(=O)N1CCC[C@@H](Oc2ccnc3cc(C(N)=O)c(OC(C)C)cc23)C1 [Example 10, 4-{[(3R)-1-propanoylpiperidin-3-yl]oxy}-6-(propan-2-yloxy)quinoline-7-carboxamide formate]
660 nM	CC(C)Oc1cc2c(O[C@H]3CCN(C(=O)CC#N)C[C@H]3F)ccnc2cc1C(N)=O [Example 18, 4-{[(3R,4S)-1-(cyanoacetyl)-3-fluoropiperidin-4-yl]oxy}-6-(propan-2-yloxy)quinoline-7-carboxamide formate]
111 nM	CC(C)Oc1cc2c(O[C@H]3CCN(C(=O)CC#N)[C@@H]3C)ccnc2cc1C(N)=O [Example 17, 4-{[(2R,3S)-1-(cyanoacetyl)-2-methylpyrrolidin-3-yl]oxy}-6-(propan-2-yloxy)quinoline-7-carboxamide formate]

Further lines, the compound ahead of its results:

Compound	IC50
CC(C)Oc1cc2c(O[C@H]3CCN(C(=O)CC#N)C[C@H]3F)nccc2cc1C(N)=O [Example 3, 1-{[(3R,4S)-1-(cyanoacetyl)-3-fluoropiperidin-4-yl]oxy}-7-(propan-2-yloxy)isoquinoline-6-carboxamide formate]	308 nM
NC(=O)c1cc2nccc(O[C@@H]3CCCNC3)c2cc1OC(F)F [Example 67, (R)-6-(difluoromethoxy)-4-(piperidin-3-yloxy)quinoline-7-carboxamide]	1390 nM
CC(C)Oc1cc2c(O[C@H]3CN(C(=O)CC#N)CC[C@@H]3C)nccc2cc1C(N)=O [Example 49, 1-{[(3R,4S)-1-(cyanoacetyl)-4-methylpiperidin-3-yl]oxy}-7-(propan-2-yloxy)isoquinoline-6-carboxamide]	29 nM
CC(C)Oc1cc2c(OC3CCCNC3)nccc2cc1C(N)=O (stereo not drawn) [Example 64, 1-(piperidin-3-yloxy)-7-(propan-2-yloxy)isoquinoline-6-carboxamide hydrochloride]	160 nM
CC(C)Oc1cc2c(OC3CCNCC3)ccnc2cc1C(N)=O [Example 25, 4-(piperidin-4-yloxy)-6-(propan-2-yloxy)quinoline-7-carboxamide]	184 nM
COc1cc2c(O[C@@H]3CCCNC3)ccnc2cc1C(N)=O [Example 22, 6-methoxy-4-[(3R)-piperidin-3-yloxy]quinoline-7-carboxamide hydrochloride]	428 nM
N#CCC(=O)N1CCC[C@@H](Oc2ccnc3cc(C(N)=O)c(OC(F)F)cc23)C1 [Example 31, 4-{[(3R)-1-(cyanoacetyl)piperidin-3-yl]oxy}-6-(difluoromethoxy) quinoline-7-carboxamide]	101 nM
CC(C)Oc1cc2c(O[C@@H]3[C@@H]4CC=C[C@H]3NC4=O)nccc2cc1C(N)=O [Example 66, 1-{[(1S,5R,8R)-7-oxo-6-azabicyclo[3.2.1]oct-3-en-8-yl]oxy}-7-(propan-2-yloxy)isoquinoline-6-carboxamide]	38 nM
N#CCC(=O)N1CCC[C@@H](Oc2ccnc3cc(C(N)=O)c(OC4CCC4)cc23)C1 [Example 33, (R)-4-((1-(2-cyanoacetyl)piperidin-3-yl)oxy)-6-cyclobutoxyquinoline-7-carboxamide]	272 nM
CC(C)Oc1cc2c(O[C@H]3C[C@H]4CC[C@@H](C3)N4)nccc2cc1C(N)=O [Example 80, 1-[(3-endo)-8-azabicyclo[3.2.1]oct-3-yloxy]-7-(propan-2-yloxy)isoquinoline-6-carboxamide]	1320 nM
NC(=O)c1cc2nccc(O[C@@H]3CCCNC3)c2cc1OC1CCC1 [Example 23, 6-(cyclobutyloxy)-4-[(3R)-piperidin-3-yloxy]quinoline-7-carboxamide]	151 nM
CC(C)Oc1cc2c(O[C@@H]3CCCN(C(=O)CC#N)C3)ncc(Cl)c2cc1C(N)=O [Example 37, 4-chloro-1-{[(3R)-1-(cyanoacetyl)piperidin-3-yl]oxy}-7-(propan-2-yloxy)isoquinoline-6-carboxamide]	40 nM
CC(C)Oc1cc2c(O[C@@H]3CCCN(C(=O)c4cnco4)C3)ccnc2cc1C(N)=O [Example 11, 4-{[(3R)-1-(1,3-oxazol-5-ylcarbonyl)piperidin-3-yl]oxy}-6-(propan-2-yloxy)quinoline-7-carboxamide formate]	560 nM
CCOc1cc2c(O[C@@H]3CCCN(C(=O)CC#N)C3)ccnc2cc1C(N)=O [Example 32, 4-{[(3R)-1-(cyanoacetyl)piperidin-3-yl]oxy}-6-ethoxyquinoline-7-carboxamide]	35 nM
CC(C)Oc1cc2c(OC3CCN(C(=O)CO)CC3)nccc2cc1C(N)=O [Example 51, 1-{[1-(hydroxyacetyl)piperidin-4-yl]oxy}-7-(propan-2-yloxy)isoquinoline-6-carboxamide]	157 nM
CC(C)Oc1cc2c(OC3CCCNC3)cccc2cc1C(N)=O (stereo not drawn) [Example 57, 3-isopropoxy-5-(piperidin-3-yloxy)-2-naphthamide hydrochloride]	40 nM
CC(C)Oc1cc2c(O[C@@H]3CCCNC3)ncc(Cl)c2cc1C(N)=O [Example 55, 4-chloro-1-[(3R)-piperidin-3-yloxy]-7-(propan-2-yloxy)isoquinoline-6-carboxamide hydrochloride]	221 nM
CC(C)Oc1cc2c(O[C@@H]3CCCN(C(=O)C(F)F)C3)ccnc2cc1C(N)=O [Example 5, 4-{[(3R)-1-(difluoroacetyl)piperidin-3-yl]oxy}-6-(propan-2-yloxy)quinoline-7-carboxamide formate]	35 nM
CC(C)Oc1cc2c(O[C@@H]3CCCN(C(=O)c4c[nH]cn4)C3)ccnc2cc1C(N)=O [Example 14, 4-{[(3R)-1-(1H-imidazol-4-ylcarbonyl)piperidin-3-yl]oxy}-6-(propan-2-yloxy)quinoline-7-carboxamide formate]	856 nM
